Assay results taken from PubChem BioAssay (NCI).
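Where inhibition never reached the appropriate level, the endpoint shown equals the highest concentration tested. Otherwise, values were interpolated linearly from a five-concentration, 48-hour dose response in 96-well plates. GI50 = concentration required for 50% inhibition of growth. At the TGI there is no net growth.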

Experiments:
Experiment in all cases: growth of human tumour cells (NCI), 48 h
[1] = test system: SK-MEL-28 melanoma
[2] = test system: TK-10 renal
[3] = test system: MDA-MB-468 breast
[4] = test system: SK-OV-3 ovarian
[5] = test system: NCI-H23 lung
[6] = test system: RPMI-8226 leukemia
[7] = test system: SR leukemia
[8] = test system: MALME-3M melanoma
[9] = test system: K-562 leukemia
[10] = test system: HCT-15 colon
[11] = test system: UO-31 renal
[12] = test system: NCI-H522 lung
[13] = test system: T-47D breast
[14] = test system: SF-268 CNS
[15] = test system: DU-145 prostate
[16] = test system: OVCAR-3 ovarian
[17] = test system: SNB-75 CNS
[18] = test system: KM12 colon
[19] = test system: SF-539 CNS
[20] = test system: OVCAR-8 ovarian
[21] = test system: SK-MEL-5 melanoma
[22] = test system: HCC-2998 colon
[23] = test system: NCI/ADR-RES ovarian
[24] = test system: BT-549 breast
[25] = test system: MOLT-4 leukemia
[26] = test system: HOP-62 NSCLC
[27] = test system: HT29 colon
[28] = test system: M14 melanoma
[29] = test system: ACHN renal
[30] = test system: UACC-257 melanoma
[31] = test system: SN12C renal
[32] = test system: HL-60(TB) leukemia
[33] = test system: A549 NSCLC
[34] = test system: HCT-116 colon
[35] = test system: SNB-19 CNS
[36] = test system: MDA-MB-231 breast
[37] = test system: NCI-H226 lung
[38] = test system: SW-620 colon
[39] = test system: OVCAR-5 ovarian
[40] = test system: RXF 393 renal
[41] = test system: SF-295 CNS
[42] = test system: U251 CNS
[43] = test system: A498 renal
[44] = test system: EKVX NSCLC
[45] = test system: LOX IMVI melanoma
[46] = test system: NCI-H460 lung
[47] = test system: MDA-MB-435
[48] = test system: PC-3 prostate
[49] = test system: HOP-92 NSCLC
[50] = test system: UACC-62 melanoma
[51] = test system: CAKI-1 renal
[52] = test system: CCRF-CEM leukemia
[53] = test system: MCF7 breast
[54] = test system: SK-MEL-2 melanoma
[55] = test system: IGROV1 ovarian
[56] = test system: OVCAR-4 ovarian
[57] = test system: HS 578T breast
[58] = test system: COLO 205 colon
[59] = test system: 786-0 renal

In the case of `O=C(COc1ccc(NC(=O)Nc2ccc(Cl)c(Cl)c2)cc1)N=Nc1c(O)[nH]c2ccccc12`, the GI50 [1] is reported as 2.12 µM, the TGI [1] is reported as 5.07 µM and the GI50 [2] is reported as 10.6 µM. For the same molecule, the TGI [2] was 28.6 µM, the GI50 [3] was 1.8 µM and the TGI [3] was 3.8 µM. It also gave a GI50 [4] of 3.28 µM, a TGI [4] of 11.8 µM and a GI50 [5] of 2.91 µM. It also gave a TGI [5] of 8.31 µM, a GI50 [6] of 5.32 µM and a TGI [6] of 29.8 µM. The GI50 [7] was 4.65 µM, the TGI [7] was 32.9 µM and the GI50 [8] was 1.83 µM. For the same molecule, the TGI [8] was 3.76 µM, the GI50 [9] was 3.46 µM and the TGI [9] was 17.9 µM. The GI50 [10] was 46.8 µM, the TGI [10] was over 100 µM and the GI50 [11] was 39 µM. The TGI [11] was over 100 µM, the GI50 [12] was 2.49 µM and the TGI [12] was 8.06 µM. It also gave a GI50 [13] of 10.6 µM, a TGI [13] of 25.2 µM and a GI50 [14] of 2.44 µM. It also gave a TGI [14] of 6.14 µM, a GI50 [15] of 3.29 µM and a TGI [15] of 18.7 µM. The GI50 [16] was 2.02 µM, the TGI [16] was 4.67 µM and the GI50 [17] was 1.65 µM. For the same molecule, the TGI [17] was 5.09 µM, the GI50 [18] was 2.87 µM and the TGI [18] was 11.2 µM. The GI50 [19] was 1.97 µM, the TGI [19] was 4.38 µM and the GI50 [20] was 2.1 µM. It also gave a TGI [20] of 4.84 µM, a GI50 [21] of 4.73 µM and a TGI [21] of 16.7 µM. It also gave a GI50 [22] of 5.31 µM, a TGI [22] of 18.1 µM and a GI50 [23] of over 100 µM. It also gave a TGI [23] of over 100 µM, a GI50 [24] of 13.7 µM and a TGI [24] of 29.7 µM. It also gave a GI50 [25] of 3.67 µM, a TGI [25] of 19.8 µM and a GI50 [26] of 2.34 µM. The TGI [26] was 5.82 µM, the GI50 [27] was 1.97 µM and the TGI [27] was 4 µM. For the same molecule, the GI50 [28] was 2.63 µM, the TGI [28] was 8.58 µM and the GI50 [29] was 7.78 µM. For the same molecule, the TGI [29] was 36.2 µM, the GI50 [30] was 2.96 µM and the TGI [30] was 10 µM. For the same molecule, the GI50 [31] was 1.77 µM, the TGI [31] was 3.77 µM and the GI50 [32] was 20.8 µM. It also gave a TGI [32] of 71.6 µM, a GI50 [33] of 2.97 µM and a TGI [33] of 8.33 µM. It also gave a GI50 [34] of 3.22 µM, a TGI [34] of 10.3 µM and a GI50 [35] of 2.89 µM. For the same molecule, the TGI [35] was 10.5 µM, the GI50 [36] was 1.96 µM and the TGI [36] was 4.7 µM. For the same molecule, the GI50 [37] was 2.76 µM, the TGI [37] was 10.8 µM and the GI50 [38] was 1.72 µM. For the same molecule, the TGI [38] was 3.79 µM, the GI50 [39] was 3.39 µM and the TGI [39] was 13.7 µM. The GI50 [40] was 2 µM, the TGI [40] was 7.65 µM and the GI50 [41] was 2.23 µM. The TGI [41] was 5.45 µM, the GI50 [42] was 1.77 µM and the TGI [42] was 3.32 µM. It also gave a GI50 [43] of 10.5 µM, a TGI [43] of 23.2 µM and a GI50 [44] of 6.11 µM. It also gave a TGI [44] of 28 µM, a GI50 [45] of 2.79 µM and a TGI [45] of 9.02 µM. For the same molecule, the GI50 [46] was 1.84 µM, the TGI [46] was 3.99 µM and the GI50 [47] was 2.05 µM. For the same molecule, the TGI [47] was 4.8 µM, the GI50 [48] was 2.01 µM and the TGI [48] was 6.24 µM. The GI50 [49] was 2.58 µM, the TGI [49] was 9.45 µM and the GI50 [50] was 3.55 µM. The TGI [50] was 13.8 µM, the GI50 [51] was 4.69 µM and the TGI [51] was 17.1 µM. The GI50 [52] was 3.97 µM, the TGI [52] was 20.8 µM and the GI50 [53] was 2.49 µM. It also gave a TGI [53] of 7.48 µM, a GI50 [54] of 12.1 µM and a TGI [54] of 25.9 µM. For the same molecule, the GI50 [55] was 4.59 µM, the TGI [55] was 17.4 µM and the GI50 [56] was 2.47 µM. The TGI [56] was 8.09 µM, the GI50 [57] was 3.06 µM and the TGI [57] was 12 µM. For the same molecule, the GI50 [58] was 2.19 µM, the TGI [58] was 5.18 µM and the GI50 [59] was 2.69 µM. For the same molecule, the TGI [59] was 6.27 µM.
